Patent US20200207829A1, “CHIMERIC RECEPTORS” (Oxford University Innovation Limited, priority 2017, published 2020)

Target: T1, dCas9(N/C)-synLPAR1 (Homo sapiens, UniProt Q92633)
T1 construct: TEV cleavage site ENLYFQL (TCS(Q'L)) (C); P2A + puromycin resistance protein (C, cleaved yes); TEV cleavage site ENLYFQG (TCS(Q'G)) (C); T2A + MCP-P65-HSF1 (C, cleaved yes); expressed in transfected cells; host or cells: HTLA cells (HEK-293 stably expressing beta-arrestin2-TEV fusion)
Assay: LPA dose-response of dCas9(N/C)-synLPAR1 (EYFP activation score, HTLA cells)
Type: cell-based
Conditions: sgEYFP, read-out: EC50 of LPA dose-dependent activation
Protocol: Transfection mixtures were vortexed for 10 seconds and incubated at room temperature for 20-30 minutes. Full media was removed from cells and replaced with experiment-specific transfection media prior to adding the DNA:PEI transfection mix as follows. For dCas9(N/C)-synBDKBR2 experiments, HTLA cells were transfected in DMEM+2% (v/v) FBS supplemented with bradykinin at indicated concentrations. The bradykinin transfection media was replaced after 20 hours with HTLA full media also supplemented with bradykinin, and incubated for an additional 24 hours. […]
For all EYFP reporter experiments, media was removed 44 or 48 hours post-transfection and cells were washed with PBS (1× phosphate buffer saline), trypsinized (0.05% trypsin-EDTA, Cat. #25300062, Gibco), and kept in 1×PBS on ice. […] 100,000 total events were recorded for each condition. Data was analysed and compensated using the FlowJo package (FLOWJO LLC). To calculate an EYFP activation score which integrates both reporter fluorescence intensity and % of activated cells the following formula was used as previously described (Xie et al., 2011). […]
The numerator (% EYFP^+ve×EYFP^mean) provides a weighted mean fluorescence accounting both for the strength of reporter activation (EYFP^mean) as well as population level activation (% EYFP^+ve), which penalizes OFF-state leakage. […]

T1 sequence (Q92633 with tags, fused parts or gaps): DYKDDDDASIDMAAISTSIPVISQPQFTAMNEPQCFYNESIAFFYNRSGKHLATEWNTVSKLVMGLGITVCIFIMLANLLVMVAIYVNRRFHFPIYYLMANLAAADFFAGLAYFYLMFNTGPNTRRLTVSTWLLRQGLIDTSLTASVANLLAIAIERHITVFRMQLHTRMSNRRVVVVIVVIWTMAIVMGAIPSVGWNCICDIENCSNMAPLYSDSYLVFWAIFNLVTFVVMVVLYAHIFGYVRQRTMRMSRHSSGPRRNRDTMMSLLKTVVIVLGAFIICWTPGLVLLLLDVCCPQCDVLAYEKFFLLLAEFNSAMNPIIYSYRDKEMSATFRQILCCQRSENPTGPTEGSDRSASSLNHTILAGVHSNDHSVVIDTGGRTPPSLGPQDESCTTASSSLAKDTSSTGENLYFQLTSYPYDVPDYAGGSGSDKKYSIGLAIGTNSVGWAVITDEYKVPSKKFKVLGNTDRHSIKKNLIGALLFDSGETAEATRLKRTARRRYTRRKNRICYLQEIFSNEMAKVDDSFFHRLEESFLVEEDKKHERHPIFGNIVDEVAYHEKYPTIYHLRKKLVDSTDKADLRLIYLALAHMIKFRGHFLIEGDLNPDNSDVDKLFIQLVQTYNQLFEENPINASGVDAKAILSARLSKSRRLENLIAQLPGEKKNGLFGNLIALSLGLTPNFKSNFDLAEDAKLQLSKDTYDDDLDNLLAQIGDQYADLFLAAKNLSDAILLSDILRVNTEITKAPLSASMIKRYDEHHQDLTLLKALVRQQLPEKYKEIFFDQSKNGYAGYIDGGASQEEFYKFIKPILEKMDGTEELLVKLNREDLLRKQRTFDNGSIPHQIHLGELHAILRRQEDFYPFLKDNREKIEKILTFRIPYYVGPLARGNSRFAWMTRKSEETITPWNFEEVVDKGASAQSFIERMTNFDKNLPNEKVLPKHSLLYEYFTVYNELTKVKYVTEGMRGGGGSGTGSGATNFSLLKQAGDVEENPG
T1 sequence (Q92633 with tags, fused parts or gaps): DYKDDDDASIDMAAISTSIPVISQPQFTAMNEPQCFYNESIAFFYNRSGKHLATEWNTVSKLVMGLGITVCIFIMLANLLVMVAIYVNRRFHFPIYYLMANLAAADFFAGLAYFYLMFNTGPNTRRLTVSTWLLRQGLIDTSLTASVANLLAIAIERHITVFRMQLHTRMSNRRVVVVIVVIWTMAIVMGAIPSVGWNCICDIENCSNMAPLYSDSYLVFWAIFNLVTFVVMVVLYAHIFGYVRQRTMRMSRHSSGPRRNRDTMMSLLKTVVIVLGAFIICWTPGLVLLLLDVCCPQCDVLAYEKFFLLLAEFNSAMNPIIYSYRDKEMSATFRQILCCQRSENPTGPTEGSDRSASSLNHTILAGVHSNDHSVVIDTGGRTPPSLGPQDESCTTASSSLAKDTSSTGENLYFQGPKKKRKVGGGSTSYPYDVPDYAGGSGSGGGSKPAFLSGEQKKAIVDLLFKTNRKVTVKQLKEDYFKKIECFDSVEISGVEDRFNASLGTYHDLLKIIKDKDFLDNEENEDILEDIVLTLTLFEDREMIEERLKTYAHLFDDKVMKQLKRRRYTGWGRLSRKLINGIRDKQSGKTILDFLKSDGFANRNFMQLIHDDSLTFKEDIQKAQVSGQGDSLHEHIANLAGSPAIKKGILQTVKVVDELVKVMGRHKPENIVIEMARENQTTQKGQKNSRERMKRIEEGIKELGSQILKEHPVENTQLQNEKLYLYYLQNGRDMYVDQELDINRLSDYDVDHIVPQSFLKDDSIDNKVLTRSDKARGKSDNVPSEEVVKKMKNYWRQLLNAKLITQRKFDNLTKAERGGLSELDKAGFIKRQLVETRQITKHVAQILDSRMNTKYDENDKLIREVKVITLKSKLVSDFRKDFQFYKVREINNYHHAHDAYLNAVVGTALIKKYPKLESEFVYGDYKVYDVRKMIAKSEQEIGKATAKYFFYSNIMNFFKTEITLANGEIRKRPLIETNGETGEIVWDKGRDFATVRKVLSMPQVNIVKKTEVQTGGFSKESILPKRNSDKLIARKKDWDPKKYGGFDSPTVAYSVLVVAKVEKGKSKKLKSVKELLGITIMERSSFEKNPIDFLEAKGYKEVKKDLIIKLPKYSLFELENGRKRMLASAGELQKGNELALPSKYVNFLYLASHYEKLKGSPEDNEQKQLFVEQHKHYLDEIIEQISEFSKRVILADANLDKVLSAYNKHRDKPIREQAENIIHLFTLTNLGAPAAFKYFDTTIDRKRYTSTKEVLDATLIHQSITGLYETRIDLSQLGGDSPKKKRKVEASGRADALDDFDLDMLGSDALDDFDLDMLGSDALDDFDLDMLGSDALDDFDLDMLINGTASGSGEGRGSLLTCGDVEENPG

Substance: 1-oleoyl lysophosphatidic acid [LPA]
- EC50: 1820 nM
